Consider four compounds from paper PMC10233823, “Conjugates of Aminoglycosides with Stapled Peptides as a Way to Target Antibiotic-Resistant Bacteria” (ACS Omega, 2023).

Values after ≈ are worked out from the molar mass of the structure shown. Read-outs that look alike come from different tables or passages of the source. Ends that are not written are not given here. Peptide text beside a SMILES is read from it. * marks the point of attachment. X2 = NC[C@@H]1O[C@H](O[C@H]2[C@@H](O)[C@H](O[C@@H]3[C@@H](O)[C@H](N)C[C@H](N)[C@H]3O[C@H]3O[C@H](CN)[C@@H](O)[C@H](O)[C@H]3N)O[C@@H]2CS*)[C@H](N)[C@@H](O)[C@@H]1O A value given as a limit tells only on which side of the number the result lay.

For assay [1], the system named is E. coli WR 3551/98. As to the kind of experiment: microbe, parasite or virus in culture. The format is cell-based, Escherichia coli. As to conditions: 24 h, 37 °C. Here is the method:
(§1) The antibacterial activity of the conjugates was assessed by determining their minimum inhibitory concentration (MIC) and minimum bactericidal concentration (MBC) against Gram-negative E. coli (K12 MG 1655 and WR 3551/98) and Gram-positive S. aureus (ATCC 29213 and ATCC BAA1720 MRSA) strains (Table 1, Figures S16–S23).
(§2) The MBC values were determined by diluting wells from the MIC experiment plate in fresh MHB medium. Dilutions of 10-, 100-, and 1000-times were prepared for the MIC well and up to two-folds higher than MIC concentrations of a given compound. Dilutions were made on a transparent flat-bottom 96-well plate (Nest), which was then sealed and incubated for 24 h, at 37 °C with shaking. The growth of a given sample well was compared with GC and SC controls.

Assay [2] has as its system E. coli K12 MG1655. As to the kind of experiment: microbe, parasite or virus in culture. As to conditions: MIC wells diluted 10-, 100-, 1000-times in fresh MHB, 24 h, 37 °C, bactericidal if no growth at 100- and 1000-times dilutions, read-out: MBC. In kind it is cell-based, Escherichia coli. On the procedure: as §1, §2
For assay [3], the system named is S. aureus ATCC 29213. As to the kind of experiment: microbe, parasite or virus in culture. In kind it is cell-based, Staphylococcus aureus. To be noted: 24 h, 37 °C, read-out: MBC. On the procedure:
as §1, §2

The test system of assay [4] is S. aureus ATCC BAA1720 MRSA. As to the kind of experiment: microbe, parasite or virus in culture. The format is cell-based, Staphylococcus aureus. To be noted: MIC wells diluted in fresh MHB, 24 h, 37 °C. On the procedure:
as §1, §2

For assay [5], the system named is E. coli WR 3551/98. As to the kind of experiment: microbe, parasite or virus in culture. The format is cell-based, Escherichia coli. To be noted: E. coli WR 3551/98 (AMK-resistant), MHB, 20 h, 37 °C with shaking, OD600. Here is the method: as §1
(§3) The MIC values were determined as follows. Bacteria were first cultured overnight in 2 mL of lysogeny broth (LB, VWR Chemicals) at 37 °C with shaking. Next, 20 μL of overnight culture was transferred into 2 mL of […] (MHB, Difco) medium and further cultured at 37 °C with shaking until the culture reached OD600 = 0.3. Subsequently, the culture was diluted 1:100 in a fresh MHB medium, and aliquots of 50 μL were mixed with 50 μL of previously prepared dilutions of the tested compound in MHB on a transparent flat-bottom 96-well plate (Nest). The plate was then sealed with transparent foil (Titer-Tops) and incubated for 20 h, at 37 °C with shaking. Following incubation, optical density at 600 nm was measured using a Tecan Sunrise plate reader. Growth inhibition was determined by comparing the given sample with untreated culture (growth control—GC) with MHB alone (sterility control—SC) as an additional reference. The experiment was conducted in at least two biological replicates of two technical replicates each. Statistical significance was determined by the two-way ANOVA test using GraphPad Prism 9 software.

For assay [6], the system named is E. coli K12 MG1655. The experiment in a line: microbe, parasite or virus in culture. In kind it is cell-based, Escherichia coli. As to conditions: MHB, 20 h, 37 °C with shaking, OD600, at least two biological replicates of two technical replicates. On the procedure:
as §1, §3

Assay [7] concerns S. aureus ATCC 29213. As to the kind of experiment: microbe, parasite or virus in culture. The format is cell-based, Staphylococcus aureus. To be noted: 20 h, 37 °C with shaking, OD600. On the procedure:
as §1, §3

The test system of assay [8] is S. aureus ATCC BAA1720 MRSA. The experiment in a line: microbe, parasite or virus in culture. As to conditions: S. aureus ATCC BAA1720 MRSA (NEO-resistant), MHB, 20 h, 37 °C with shaking, OD600. The format is cell-based, Staphylococcus aureus. On the procedure:
as §1, §3

Assay [9] deals with S. aureus ATCC 29213. The experiment in a line: Checkerboard synergy test. The format is cell-based, Staphylococcus aureus. To be noted: MIC not determined, tested range up to 128 μM. Here is the method: The synergy between the compounds was assessed using the checkerboard method in a similar way as mentioned in our previous study.[79],[80] Bacteria were first cultured overnight in 2 mL of LB (VWR Chemicals) at 37 °C with shaking. Next, 20 μL of overnight culture was transferred into 2 mL of MHB medium and further cultured at 37 °C with shaking until the culture reached OD600 = 0.3. Subsequently, culture was diluted 1:200 in a fresh MHB medium, and aliquots of 90 μL were mixed with 10 μL of previously prepared dilutions of tested compounds in MHB on a transparent flat-bottom 96-well plate (Nest). The plate was then sealed with transparent adhesive foil (Titer-Tops) and incubated for 20 h, at 37 °C with shaking. Following incubation, optical density at 600 nm was measured using the Tecan Sunrise plate reader. Growth inhibition was determined by comparing the given sample with untreated culture (GC) with MHB alone (SC) as an additional reference. The FIC index was calculated for the first cell within each row and column where growth inhibition was observed. The following formula was used [drawing 1] Ca, Cb—concentration of the agent in combination, and MICa, MICb—MICs for agent a and agent b alone.
Then, the median FIC was determined for the entire checkerboard. In addition, the minimal and maximal values were distinguished (Table 2). […]

The mark [10] stands for this setting: MIC wells diluted in fresh MHB, read-out: MBC.

In the case of `CC[C@H](C)[C@H](NC(=O)[C@H](CCCNC(=N)N)NC(=O)[C@H](CCCCN)NC(=O)[C@H](CC(C)C)NC(=O)[C@H](CC(C)C)NC(=O)CNC(=O)CCCCCCCCc1cn(C[C@H]2O[C@H](O[C@@H]3[C@@H](O)[C@H](O[C@H]4O[C@H](CN)[C@@H](O)[C@H](O)[C@H]4O)[C@@H](N)C[C@H]3NC(=O)[C@@H](O)CCN)[C@H](O)[C@@H](N)[C@@H]2O)nn1)C(=O)N[C@@H](CCCCN)C(=O)N[C@H](C(=O)N[C@@H](CC(C)C)C(=O)N[C@@H](CC(C)C)C(N)=O)[C@@H](C)O` [AMK-anoplin] (HELM PEPTIDE1{[NCC[C@H](O)C(=O)N[C@@H]1C[C@H](N)[C@@H](O[C@H]2O[C@H](CN)[C@@H](O)[C@H](O)[C@H]2O)[C@H](O)[C@H]1O[C@H]1O[C@H](Cn2cc(CCCCCCCCC(=O)[*:2])nn2)[C@@H](O)[C@H](N)[C@H]1O].G.L.L.K.R.I.K.T.L.L.[am]}$$$$V2.0), the MBC against E. coli WR 3551/98 [1] (MIC wells diluted in fresh MHB) was 16 to 32 µM; in the assay with E. coli K12 MG1655 [2] it was 16 µM (≈ 30.9 µg/mL); in the assay with S. aureus ATCC 29213 [3] (MIC wells diluted in fresh MHB) it was >32 µM; in assay [4] it was >32 µM. The MIC is on record as 16 µM (≈ 30.9 µg/mL) in the assay on E. coli WR 3551/98 [5], 16 µM (≈ 30.9 µg/mL) with E. coli K12 MG1655 [6], 32 µM (≈ 61.7 µg/mL) with S. aureus ATCC 29213 [7] (MHB) and >32 µM in assay [8].

As to `NCC[C@H](O)C(=O)N[C@@H]1C[C@H](N)[C@@H](O[C@H]2O[C@H](CN)[C@@H](O)[C@H](O)[C@H]2O)[C@H](O)[C@H]1O[C@H]1O[C@H](CO)[C@@H](O)[C@H](N)[C@H]1O` [amikacin (AMK), amikacin, reference compound], the MBC was > 32 µM with E. coli WR 3551/98 [1] (Escherichia coli, WR3551/98, MIC wells diluted in fresh MHB, read-out: MBC); 8 to 16 µM (≈ 4.68 to 9.37 µg/mL) in the assay on E. coli K12 MG1655 [2] (Escherichia coli); 8 µM (≈ 4.68 µg/mL) in the assay on S. aureus ATCC 29213 [3] (Staphylococcus aureus, ATCC29213, MIC wells diluted in fresh MHB); ≥ 32 µM in assay [4] (Staphylococcus aureus). Further, the MIC in the assay with E. coli WR 3551/98 [5] is >32 µM; against E. coli WR 3551/98 [5] (Escherichia coli, WR3551/98), > 32 µM; against E. coli K12 MG1655 [6] (Escherichia coli) it was 4 µM (≈ 2.34 µg/mL); with S. aureus ATCC 29213 [7] (Staphylococcus aureus, ATCC29213, MHB) it was 8 µM (≈ 4.68 µg/mL); in assay [8] (Staphylococcus aureus) it was 32 µM (≈ 18.7 µg/mL).

“GLLKRIKTLL-NH2 (C-terminus assumed) [anoplin, reference compound]”: the MBC with E. coli WR 3551/98 [1] (setting [10]) was >32 µM; in the assay with E. coli K12 MG1655 [2], ≥32 µM; with S. aureus ATCC 29213 [3] (MIC wells diluted in fresh MHB) it was >32 µM; in assay [4], >32 µM. In addition, in the assay on S. aureus ATCC 29213 [9], the “growth inhibition concentration threshold” value is “higher than 128 μM”. The MIC (in the assay with E. coli WR 3551/98 [5]; with S. aureus ATCC 29213 [7] (MHB); in [8]) was >32 µM each time.

Take `CC[C@H](C)[C@H](NC(=O)[C@H](CCCNC(=N)N)NC(=O)[C@H](CCCCN)NC(=O)[C@H](CC(C)C)NC(=O)[C@H](CC(C)C)NC(=O)CNC(=O)[C@@H](N)CSSC[C@H]1O[C@@H](O[C@@H]2[C@@H](O)[C@H](N)C[C@H](N)[C@H]2O[C@H]2O[C@H](CN)[C@@H](O)[C@H](O)[C@H]2N)[C@H](O)[C@@H]1O[C@H]1O[C@@H](CN)[C@@H](O)[C@H](O)[C@H]1N)C(=O)N[C@@H](CCCCN)C(=O)N[C@H](C(=O)N[C@@H](CC(C)C)C(=O)N[C@@H](CC(C)C)C(N)=O)[C@@H](C)O` [NEO-SS-anoplin] (H-C(X2)GLLKRIKTLL-NH2): the MBC is 16 µM (≈ 30.2 µg/mL) in the assay with E. coli WR 3551/98 [1] (setting [10]), 8 µM (≈ 15.1 µg/mL) in the assay on E. coli K12 MG1655 [2], 8 µM (≈ 15.1 µg/mL) with S. aureus ATCC 29213 [3] (MIC wells diluted in fresh MHB) and >32 µM in assay [4]. Besides, the MIC was 8 µM (≈ 15.1 µg/mL) with E. coli WR 3551/98 [5], 8 µM (≈ 15.1 µg/mL) with E. coli K12 MG1655 [6], 4 µM (≈ 7.54 µg/mL) against S. aureus ATCC 29213 [7] (MHB) and >32 µM in [8].
